Test results as given in ChEMBL document CHEMBL1135257, “Bivalent inhibition of beta-tryptase: distance scan of neighboring subunits by dibasic inhibitors” (Bioorg Med Chem Lett, 2002).

Target: Tryptase beta-1 (Homo sapiens, UniProt Q15661)
Assay: Inhibitory activity against human Tryptase beta was evaluated

Chain of Tryptase beta-1 (Q15661 whole entry): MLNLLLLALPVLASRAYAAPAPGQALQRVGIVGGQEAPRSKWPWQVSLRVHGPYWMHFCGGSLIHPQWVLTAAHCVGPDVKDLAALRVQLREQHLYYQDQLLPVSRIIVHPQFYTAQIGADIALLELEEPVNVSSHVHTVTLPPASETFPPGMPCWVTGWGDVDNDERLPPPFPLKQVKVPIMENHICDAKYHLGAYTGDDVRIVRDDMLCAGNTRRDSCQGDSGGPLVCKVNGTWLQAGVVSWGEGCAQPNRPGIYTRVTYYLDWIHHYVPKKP

| SMILES | Ki |
| --- | --- |
| COC(=O)C(Cc1cccc(CN)c1)NC(=O)CCNC(=O)C[C@@H]1NC(=O)[C@@H](CC(=O)NCCC(=O)NC(Cc2cccc(CN)c2)C(=O)OC)NC1=O (some centres not stated) | 10 nM |
| COC(=O)C(Cc1cccc(CN)c1)NC(=O)CC[C@@H]1NC(=O)[C@@H](CC(=O)NCC(=O)NC(Cc2cccc(CN)c2)C(=O)OC)NC1=O (some centres not stated) | 180 nM |
| COC(=O)C(Cc1cccc(CN)c1)NC(=O)CCCNC(=O)C[C@@H]1NC(=O)[C@@H](CC(=O)NCCCC(=O)NC(Cc2cccc(CN)c2)C(=O)OC)NC1=O (some centres not stated) | 350 nM |
| COC(=O)[C@@H](Cc1ccc(CN)cc1)NC(C)=O | 213000 nM |
| COC(=O)[C@@H](Cc1cccc(CN)c1)NC(C)=O | 13700 nM |

Continued by falling Ki, values first:

| Ki | SMILES |
| --- | --- |
| 2400 nM | COC(=O)C(Cc1cccc(CN)c1)NC(=O)CCC1NC(=O)[C@@H](CCC(=O)NC(Cc2cccc(CN)c2)C(=O)OC)NC1=O (some centres not stated) |
| 18 nM | COC(=O)C(Cc1cccc(CN)c1)NC(=O)CNC(=O)C[C@@H]1NC(=O)[C@@H](CC(=O)NCC(=O)NC(Cc2cccc(CN)c2)C(=O)OC)NC1=O (some centres not stated) |
